Assay results taken from PubChem BioAssay AID179 (DTP/NCI, 2004).
Activity calls are given as the source filed them.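 The calls were made as follows: active = compounds giving half or more protection of infected cells from virus-caused growth loss, again on retest; inactive = the rest.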 Where a SMILES comes first, the peptide text is derived from it. [ ]: non-standard residue; d: D form. The star is where a group is joined. ξ: configuration not given here. ξD = NC(CC(=O)O)C(=O)O; Ac3c = NC1(C(=O)O)CC1; Boc = CC(C)(C)OC(=O)*; OtBu = CC(C)(C)O*

Test system: CEM cells HIV-1 protection, formazan growth assay
Assay: NCI AIDS Antiviral Assay
Conditions: for IC50: measured here: growth of uninfected CEM cells
Outline: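 Steps: treat uninfected and HIV-1-infected human CEM cells at five drug levels; quantify growth by soluble formazan; retest any compound reaching 50% protection; classify actives from the retest.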

Row | SMILES | EC50 [µM] | IC50 [µM] | outcome
1 | CC(=O)Oc1c(Br)ccc2cc(C(Br)Br)c(C(=O)c3ccccc3)nc12 | > 5.01 | > 5.01 | 
2 | O=C(O)C1=CN(c2ccncc2)C(c2ccco2)=CC1c1ccccc1[N+](=O)[O-] (stereo unspecified) | > 200 | 4.79 | 
3 | S=C1SCN(C(c2ccccc2)c2ccccc2)CN1C(c1ccccc1)c1ccccc1 | > 200 | 4.47 | 
4 | CCc1ccc2c(c1)CC1(C2)Cc2cc3c(cc2C1)C(=O)CC3 (stereo unspecified) | > 200 | 12.6 | 
5 | O=C1NCC2(CCN(Cc3ccccc3)CC2)N1 | > 200 | > 200 | 
6 | CC1(Br)C(=O)C(O)=C(Br)C1=O (stereo unspecified) | > 200 | 19.5 | 
7 | Cc1cc(C)nc(NS(=O)(=O)c2ccc(Nc3c4ccccc4nc4c(C(=O)Nc5ccc(S(=O)(=O)N=C(N)N)cc5)ccc(Cl)c34)cc2)n1 | > 93.3 | 69.2 | 
8 | CCOC(=O)CCCNC(=O)c1ccccc1SC(=O)CCCC[n+]1ccccc1 | > 2 | 0.912 | 
9 | O=C1C=CC2O[C@H](c3ccccc3)[C@@H](O)C2O1 (stereo partly specified) | > 1070 | 6.46 | 
10 | N=C(N)c1ccc(/C=C/c2ccc(C(=N)N)cc2O)cc1 | > 1450 | 55 | 
11 | CC(=O)Nc1sccc1S(=O)(=O)c1ccsc1NC(C)=O | > 200 | 5.62 | 
12 | Clc1ccc(-c2cc(-c3cc(-c4ccc(Cl)cc4)n[nH]3)[nH]n2)cc1 | > 200 | > 200 | 
13 | COCC12CC(CC1=O)C1C2ON2c3ccccc3C(=O)C12c1ccccc1 (stereo unspecified) | > 50.1 | > 50.1 | 
14 | OCC1CC2CC1C1(C2)OCCO1 (stereo unspecified) |  |  | inactive
15 | Oc1cc(Br)cc2cc(Cl)cnc12 | > 200 | 1.02 | 
16 | CC(=O)N1N=C(c2c(O)ccc3ccccc23)CC1c1ccc(Cl)cc1 (stereo unspecified) | > 200 | 25.1 | 
17 | CCN(CC)C(=S)SNCCc1ccc(S(N)(=O)=O)cc1 | > 200 | 10.5 | 
18 | COc1ccc(/C=C/C(=O)c2c(OC)cc(OC)c(OC)c2O)cc1 |  |  | inactive
19 | Cn1nc(/C=C/c2ccccc2)nc2c(=O)n(C)c(=O)nc1-2 | > 200 | 0.631 | 
20 | COc1cc2ccc(CC(N)=O)cc2cc1OC |  |  | inactive
21 | c1ccc(C2NC(c3ccccc3)N3C(c4ccccc4)N23)cc1 (stereo unspecified) | > 16.6 | > 16.6 | 
22 | COc1ccccc1Nc1nc(NNC(=O)Cc2ccccc2)nc(NNC(=O)c2ccncc2)n1 | > 50.1 | > 50.1 | 

Row | SMILES | EC50 [µM] | IC50 [µM] | outcome
23 | COc1cc2c3c(c1OC)-c1cc(O)ccc1C[C@H]3NCC2 |  |  | inactive
24 | COc1cc(OC)cc(-n2c(N)c(C#N)c3ccc([N+](=O)[O-])cc3c2=O)c1 | > 200 | > 200 | 
25 | COc1ccc2c(c1OC)C13CCCC[C@H]1C(C2)[N+](C)(C)CC3 (stereo partly specified) | > 562 | > 562 | 
26 | C=CCC(N(C)C(=O)[C@H](Cc1ccccc1)NC(=O)OCc1ccccc1)P(=O)(Oc1ccccc1)Oc1ccccc1 (stereo partly specified) | > 200 | 77.6 | 
27 | CC1(C)CC[C@]2(C(=O)O)CCC3(C)C(=CCC4[C@@]5(C)CC[C@H](OC6OCC(O)C(O)C6OC6OC(CO)C(O)C(O)C6O)C(C)(C)C5CC[C@]43C)C2C1 (stereo partly specified) |  |  | inactive
28 | COc1ccc(CCNC(=O)[C@H]2CCCC[C@@H]2CCO)cc1OC | > 200 | > 200 | 
29 | O=C1OC(N=P(c2ccccc2)(c2ccccc2)c2ccccc2)C(N=P(c2ccccc2)(c2ccccc2)c2ccccc2)=C1Cl (stereo unspecified) | > 20 | 18.2 | 
30 | CC(O)(P(=O)(O)O)P(=O)(O)O.[NH-]CC[NH-].[NH-]CC[NH-].[Pd+2].[Pd+2] | > 200 | 87.1 | 
31 | CN(CCC#N)c1ccc(/C=C(\C#N)c2ccc(Br)cc2)cc1 | > 200 | 4.57 | 
32 | C[N+]12C=CC=C1C(N1CCCC1)c1scc(-c3ccc(F)cc3)c12 (stereo unspecified) | > 200 | 24.5 | 
33 | Oc1ccc([I+]c2ccccc2)cc1O | > 107 | 30.2 | 
34 | COc1ccc([B-]23OCC[N+]2(CNC(=O)C2=C(O)C4(O)C(=O)C5=C(O)c6c(O)cccc6C(C)(O)C5CC4C(N(C)C)C2=O)CCO3)cc1 (stereo unspecified) | > 100 | 47.9 | 
35 | COC(=O)C1(NC(=O)C(CC(=O)OC(C)(C)C)NC(=O)OC(C)(C)C)CC1 (stereo unspecified) (Boc-[ξD](OtBu)-[Ac3c]-OMe) | > 200 | > 200 | 
36 | O=C1C2CC3OC3CC2C(=O)N1CN1C(=O)C2CC3OC3CC2C1=O (stereo unspecified) | > 200 | > 200 | 
37 | COc1cc2c(c(O)c1OC)C(=O)C1CCC(=O)N1C2c1cccc2ccccc12 (stereo unspecified) | > 200 | 31.6 | 
38 | O=C(O)CN(CC(=O)O)CC(O)CN(CC(=O)O)CC(=O)O | > 200 | 69.2 | 
39 | COc1cc2cc(C(=O)N3CC(CCl)c4ccc(N(C)C)cc43)[nH]c2c(OC)c1OC (stereo unspecified) | > 2 | 0.138 | 
40 | Cc1ccc(S(=O)(=O)Sc2ccccc2)cc1 | > 135 | 21.9 | 
41 | N#CC1C(=O)Nc2sc(C(=O)c3ccc(Br)cc3)c(N)c2C12CCCCC2 (stereo unspecified) | > 200 | 11.5 | 
42 | CCN(CC)CC(=N)N(CC)c1ccccc1 | > 417 | 195 | 
43 | COC(=O)C12C(=O)CC3CCC1C32C(=O)OC (stereo unspecified) |  |  | inactive
44 | CC(C)(N)Cc1ccccc1Cl | > 200 | > 200 | 

Row | SMILES | EC50 [µM] | IC50 [µM] | outcome
45 | CC12OC3(C)OC(=O)C(c4ccccc4)(O1)C3(C)O2 (stereo unspecified) |  |  | inactive
46 | NCCCCN(CCCN)Cc1ccc2ccccc2c1 | > 200 | 72.4 | 
47 | CCCCSC(=CC(=O)c1cccc(C(=O)C=C(SCCCC)SCCCC)n1)SCCCC | > 3.72 | > 3.72 | 
48 | O=C(/C=C/c1ccc(O)c(O)c1)OCCc1ccc2ccccc2c1 | > 200 | 4.68 | 
49 | CC1(C)CCC(=O)c2c(O)ccc(O)c21 |  |  | inactive
50 | CC1(C)OC(=O)C(C#N)=C1/C=C/c1coc2ccc(Cl)cc2c1=O | > 29.5 | > 29.5 | 
51 | O=C(OC(C(=O)O)C(OC(=O)c1ccccc1)C(=O)O)c1ccccc1 (stereo unspecified) (tested in a mixture with another compound) | > 380 | 0.912 | 
52 | Cc1ccc(C(=O)CC(O)(C(F)(F)F)C(F)(F)F)cc1[N+](=O)[O-] | > 200 | 6.61 | 
53 | O=C(NC1CCC(CC2CCC(NC(=O)c3cc(O)c(O)c(O)c3)CC2)CC1)c1cc(O)c(O)c(O)c1 (stereo unspecified) | > 100 | 10.5 | 
54 | CCOc1ccccc1NC(=O)CC(C(=O)OC)C(=O)C(=O)OC (stereo unspecified) | > 537 | > 537 | 
55 | CC(=O)NC(C(=O)O)(C(=O)O)C(C)CC(=O)O (stereo unspecified) | > 200 | > 200 | 
56 | NCCCN1CCN(CC(=O)O)CCN(CCCN)CCN(CC(=O)O)CC1 | > 200 | 4.37 | 
57 | CC1OC(OP(=O)(OCc2ccccc2)OCc2ccccc2)C(OC(=O)c2ccccc2)C(OC(=O)c2ccccc2)C1I (stereo unspecified) | > 25.1 | > 25.1 | 
58 | CCOC(=O)c1c(Br)c(-c2ccc(Br)cc2)c(Br)n1C | > 100 | 43.7 | 
59 | COc1ccccc1N=Nc1c(S(=O)(=O)O)cc2cc(NC(=O)Nc3ccc4c(O)c(N=Nc5ccc(S(=O)(=O)O)cc5C)c(S(=O)(=O)O)cc4c3)ccc2c1O |  |  | active
60 | CC1CC(C)(C)NCCNC(C)CC(C)(C)NCCN1 (stereo unspecified) | 195 | > 200 | 
61 | CC(C)CC1NC(=O)CCC(NC(=O)C(Cc2ccc(O)cc2)NC(=O)OCc2ccccc2)C(=O)NC(Cc2ccccc2)C(=O)NC(Cc2ccccc2)NC1=O (stereo unspecified) | > 200 | > 200 | 
62 | COc1ccccc1CO[C@]1(C)CNCC(C)(C)NC(=O)[C@](C)(OCc2ccccc2OC)CNCC(C)(C)NC1=O | > 200 | 91.2 | 
63 | O=P(N1CC1)(N1CC1)N1CC2CCC(CC2)C1 | > 200 | 1.62 | 
64 | COc1ccc(C)cc(=O)c1O | > 251 | 14.5 | 
65 | COc1cc(Nc2nc3ccccc3nc2C(=O)O)cc(OC)c1OC | > 200 | 8.91 | 
66 | O=[N+]([O-])c1ccccc1OS(=O)(=O)c1ccccc1 |  |  | inactive

Row | SMILES | EC50 [µM] | IC50 [µM] | outcome
67 | O=C(NC(=S)Nc1ccccn1)c1ccccc1 | > 200 | 135 | 
68 | COC(=O)/C(=N\NC(=O)C[N+](C)(C)C)C(C(=O)OC)C(=O)C(=O)Nc1ccccc1C(N)=O (stereo unspecified) | > 501 | > 501 | 
69 | Cc1cc2c(=O)cc(-c3ccccc3Cl)oc2c(C(=O)O)c1C | > 200 | > 200 | 
70 | CC1(C)CN=C(Nc2ccc(F)c(F)c2)S1 | > 200 | > 200 | 
71 | CC(C)(C)OC(=O)NC(Cc1ccccc1)OCc1ccccc1 (stereo unspecified) | > 200 | 45.7 | 
72 | CC[C@@H](C)[C@H]([C@H](CC(=O)N1CCC[C@@H]1[C@@H](OC)[C@H](C)C(=O)N[C@H](Cc1ccccc1)c1nccs1)OC)N(C)C(=O)[C@H](NC(=O)[C@@H](C(C)C)N(C)C)C(C)C | > 316 | 0.1 | 
73 | CCOC(=O)C1C(=O)C(=O)N2CCc3c([nH]c4ccccc34)C12 (stereo unspecified) | > 263 | 166 | 
74 | CCn1c(=O)c(N=O)c(N)n(CCCOC)c1=O | > 200 | > 200 | 
75 | CCC1(CC)C(=O)N(C(=O)c2ccccc2)N(C(=O)c2ccc(Cl)cc2)C1=O | > 200 | 50.1 | 
76 | CCOC(=O)C(NC(=O)c1cccc(Cl)c1)(Nc1cccc(C)c1)C(F)(F)F (stereo unspecified) | > 200 | 17.4 | 
77 | CCOC(=O)c1ccc(CSc2ccc(N)cc2)cc1 | > 457 | 240 | 
78 | CCOCN1COCN(C)C1=O | > 1450 | > 1450 | 
79 | CNP1(NC)=NP(NC)(NC)=NP(NC)(NC)=NP(NC)(NC)=N1 | > 3.47 | > 3.47 | 
80 | O=C(N/N=C/c1c(-c2ccccc2)no[n+]1[O-])N1CCOCC1 | > 100 | > 100 | 
81 | O=C(C[P+](c1ccccc1)(c1ccccc1)c1ccccc1)c1ccc(Br)cc1 | > 200 | 14.8 | 
82 | C#CC(O)c1ccc(OC)c(OC)c1 (stereo unspecified) |  |  | inactive
83 | CC1(C)COC(c2cccc(C3=NC(C)(C)CO3)n2)=N1 | > 26.3 | > 26.3 | 
84 | Cc1ccc(S(=O)(=O)OCC23CCC(C4CC42)C2CC23)cc1 (stereo unspecified) | > 100 | 77.6 | 
85 | COc1ccc(-c2coc3cc(O)cc(O)c3c2=O)cc1 | > 200 | 12.6 | 
86 | CN(C)C1C(=O)C(C(=O)NCNCCCO)=C(O)C2(O)C(=O)C3=C(O)c4c(O)cccc4C(C)(O)C3CC12 (stereo unspecified) | > 204 | > 100 | 
